For data set [1], the system named is Human uterine smooth muscle cells. The data set is described as follows: Intracellular Ca2+ with Fluo-4, live cell confocal imaging. The format is cell-based. As for the experimental part: Human uterine smooth muscle cells were established in a culture. Intracellular Ca^2+ was measured with the calcium indicator dye Fluo-4 and live cell imaging with confocal microscopy was established for the cells.
It was further investigated if the main transport mechanism of inositol-3 phosphate (IP3) stimulated Ca^2+ transport of the endoplasmatic reticulum. To study this pathway, 2-Aminoethoxydiphenyl borate (2-APB) was tested on Ca^2+ after 30 min of incubation with a concentration of 100 μM.
To further characterize the interaction between oxytocin and DF01 the effect of the oxytocin receptor antagonist Atosiban was used and the cells subjected to the DF01 enhanced oxytocin effect on Ca^2+ transport.

The conditions of data set [2]: subcutaneous; species not stated; cited from earlier work.

Data on 4 molecules can be found in US20150057226A1, “METHOD FOR TREATMENT OF LABOR ARREST” (DILAFOR AB, priority 2012, published 2015).

Positions of bridges follow the written chain, without caps; N, C: chain ends. Non-standard residues stand in square brackets, D forms with d. Residues, ends and D or L forms follow the SMILES beside them. Orn = NCCC[C@H](N)C(=O)O; Mpa = O=C(O)CCS

Turning to `NCCOB(c1ccccc1)c1ccccc1` [2-APB, 2-Aminoethoxydiphenyl borate], the “effect on oxytocin and oxytocin/DF01 stimulated Ca2+-transport” value in data set [1] (100 μM, after 30 min of incubation) is given as “decreased strongly”. Regarding `CCOc1ccc(C[C@H]2NC(=O)CCSSC[C@@H](C(=O)N3CCC[C@H]3C(=O)N[C@@H](CCCN)C(=O)NCC(N)=O)NC(=O)[C@H](CC(N)=O)NC(=O)[C@H]([C@@H](C)O)NC(=O)[C@H]([C@@H](C)CC)NC2=O)cc1` [Atosiban] ([Mpa][dY](Et)ITNCP[Orn]G-NH2; disulfide 1-6), the “effect on oxytocin and oxytocin/DF01 effect on Ca2+ transport” value in data set [1] (10^−6 M) is reported as “clearly inhibited”. Turning to `CC[C@H](C)[C@@H]1NC(=O)[C@H](Cc2ccc(O)cc2)NC(=O)[C@@H](N)CSSC[C@@H](C(=O)N2CCC[C@H]2C(=O)N[C@@H](CC(C)C)C(=O)NCC(N)=O)NC(=O)[C@H](CC(N)=O)NC(=O)[C@H](CCC(N)=O)NC1=O` [oxytocin], in data set [1] (cells treated with oxytocin), the “Ca2+-influx to the cytosol” value is reported as “demonstrated”. In data set [1] (dose-dependent effect), the “oxytocin concentration giving maximum effect on Ca2+-influx” value is listed as 0.05 IU/ml. On to heparin, for which the corresponding bioavailability result in data set [2] is “about 10%”.
